Peptide text beside a SMILES is read from it.
Legend:
[1] = tested on: S. aureus USA300 biofilms; conditions: 25 μM; 24 hour formed static biofilms
Procedure: The antibiofilm activity of the peptide against 24 hours established biofilms was evaluated. In short, S. aureus USA300 (10^5 CFU/mL) was made from exponential phase bacteria in TSB media and 200 μL was distributed to each well of the microtiter plate (Corning Costar Cat No. 3595). The plates were incubated at 37° C. for 24 hours to form biofilm. Culture treated with water served as a positive control while media without bacterial inoculation served as the negative control. Media was then pipetted out and the attached biofilms were washed with 1×PBS to remove the planktonic bacteria. Each well of the plate was then filled with 20 μL of 10× peptide solution and 180 μL of fresh TSB media and the plates were further incubated at 37° C. for 24 hours. Media was then pipetted out and the wells were washed with 1×PBS to remove planktonic cells. Live cells in the biofilms were then quantitated using XTT [2,3-bis(2-methyloxy-4-nitro-5-sulfophenyl)-2H-tertazolium-5-carboxanilide] assay by following the manufacturer's instructions with modifications. 180 μL of fresh TSB and 20 μL of XTT solution was added to each well and the plates were again incubated at 37° C. for 2 hours. Absorbance at 450 nm (only media with XTT containing wells served as the blank) was obtained using a ChroMate® microtiter plate reader. […]

in vivo = assay: in vivo
Procedure: The efficacy of the two peptides was also investigated in non-neutropenic mice against S. aureus USA300. A higher bacterial inoculum at 2×10^8 CFU per mouse was used. […] To evaluate the peptide pharmacokinetics (Chhonker, et al. (2018) Biomed. Chromatogr. e4389), the plasma clearance rate of horine after intravenous injection of 10 mg/kg into BALB/c mice was followed.

| Compound | S. aureus killed in biofilms [1] [%] | Time to become undetectable in plasma (in vivo; 10 mg/kg i.v.) [h] | level at 5 min (in vivo; BALB/c, mouse, plasma, iv, 10 mg/kg) [ng/mL] |
| --- | --- | --- | --- |
| CC(C)C[C@H](NC(=O)[C@H](CC(C)C)NC(=O)[C@H](CCCCN)NC(=O)[C@H](CC(C)C)NC(=O)CNC(=O)[C@H](CC(C)C)NC(=O)[C@H](CO)NC(=O)[C@H](CC(C)C)NC(=O)[C@H](CC(C)C)NC(=O)[C@H](CC(C)C)NC(=O)[C@H](CCCCN)NC(=O)[C@H](CC(C)C)NC(=O)CN)C(N)=O [DFT561, GLKLLLSLGLKLL] (H-GLKLLLSLGLKLL-NH2; N-terminus and C-terminus assumed) | 60 | – | – |
| CC(C)C[C@H](NC(=O)[C@H](Cc1c[nH]c2ccccc12)NC(=O)[C@H](Cc1c[nH]c2ccccc12)NC(=O)[C@@H](N)Cc1c[nH]c2ccccc12)C(=O)N[C@@H](CCCNC(=N)N)C(=O)N[C@@H](CCCNC(=N)N)C(=O)N[C@@H](CCCNC(=N)N)C(=O)N[C@@H](Cc1c[nH]c2ccccc12)C(N)=O [Horine, WWWLRRRW] (H-WWWLRRRW-NH2; N-terminus and C-terminus assumed) | – | ≤ 1 | 266 |

From patent publication US12173088B2, “Anti-microbial peptides” (priority 2018, dated 2024)
